Consider 19 molecules from the supplement of paper PMC8967900.
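Further: ALL cell lines in 384-well plates, five doses spanning 10,000-fold, each plate scaled between vehicle and 100 µmol/L benzalkonium chloride controls, sDSS an adapted area-under-curve metric.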

The first assay relates to ALL-PO. The experiment in a line: selective drug sensitivity score (sDSS, relative to normal bone marrow) (sDSS (score)); higher = more potent and effective on the cell line relative to normal bone marrow cells. As to conditions: 72 h.
On to `NCCNc1ccc(NCCN)c2c1C(=O)c1ccncc1C2=O` [Pixantrone] (top concentration 10000 nM), for which the “selective drug sensitivity score” value is -2.76.

Take `c1cc(CN2CCCNCCNCCCNCC2)ccc1CN1CCCNCCNCCCNCC1` [Plerixafor] (top concentration 10000 nM): the “selective drug sensitivity score” value is 0.

As to `O=C(c1ccc(OCCN2CCCCC2)cc1)c1c(-c2ccc(O)cc2)sc2cc(O)ccc12` [Raloxifene] (top concentration 10000 nM), the “selective drug sensitivity score” value was -0.38.

Regarding `CN(C)C(=O)c1cc2cnc(Nc3ccc(N4CCNCC4)cn3)nc2n1C1CCCC1` [Ribociclib] (top concentration 10000 nM), the “selective drug sensitivity score” value is 0.98.

Consider `CN1CCN(CCOc2cc(OC3CCOCC3)c3c(Nc4c(Cl)ccc5c4OCO5)ncnc3c2)CC1` [Saracatinib] (top concentration 10000 nM), for which the “selective drug sensitivity score” value was -0.02.

In the case of `C=CC(=O)Nc1cccc(Nc2nc(Nc3ccc(OCCOC)cc3)ncc2F)c1` [Spebrutinib] (top concentration 1000 nM), the “selective drug sensitivity score” value turned out to be 4.14.

In the case of `C[C@@H]1CN(Cc2ccc(F)cc2)[C@@H](C)CN1C(=O)c1cc2c(C(=O)C(=O)N(C)C)cn(C)c2cc1Cl` [Talmapimod] (top concentration 10000 nM), the “selective drug sensitivity score” value was found to be 3.2.

Consider `C[C@@H](C(=O)O)c1ccc(-c2ccccc2)c(F)c1` [Tarenflurbil] (top concentration 10000 nM), for which the “selective drug sensitivity score” value is -0.16.

With `CNC(=O)c1cc(COc2nnc(Nc3ccc(Cl)cc3)c3ccoc23)ccn1` [Telatinib] (top concentration 10000 nM), the “selective drug sensitivity score” value is 0.

Consider `O=c1sn(-c2cccc3ccccc23)c(=O)n1Cc1ccccc1` [Tideglusib] (top concentration 3000 nM), for which the “selective drug sensitivity score” value was -0.3.

As for `COc1cc2nccc(Oc3ccc(NC(=O)Nc4cc(C)on4)c(Cl)c3)c2cc1OC` [Tivozanib] (top concentration 10000 nM), the “selective drug sensitivity score” value is 1.76.

As for `Cc1cc(Nc2cc(N3CCN(C)CC3)nc(Sc3ccc(NC(=O)C4CC4)cc3)n2)n[nH]1` [Tozasertib] (top concentration 10000 nM), the “selective drug sensitivity score” value is 17.3.

Consider `CC1=C(/C=C/C(C)=C/C=C/C(C)=C/C(=O)O)C(C)(C)CCC1` [Tretinoin] (top concentration 10000 nM), for which the “selective drug sensitivity score” value was -2.3.

Take `COC(=O)c1ccc2c(c1)[nH]c1ncnc(NCCCN3CCCCC3)c12` [UM729] (top concentration 10000 nM): the “selective drug sensitivity score” value came out at 2.54.

Regarding `COc1cc2c(NC3CCN(C(C)C)CC3)nc(N3CCC(F)(F)CC3)nc2cc1OCCCN1CCCC1` [UNC0642] (top concentration 10000 nM), the “selective drug sensitivity score” value was 2.96.

Turning to `O=C(c1ccc(C(=O)N2CCC(N3CCCC3)CC2)c(Nc2ccccc2)c1)N1CCC(N2CCCC2)CC1` [UNC1215] (top concentration 10000 nM), the “selective drug sensitivity score” value amounted to 0.

On to `CCCC(CCC)C(=O)O` [Valproic_acid] (top concentration 1000000 nM), for which the “selective drug sensitivity score” value amounted to 0.

As for `Clc1ccc(Nc2nnc(Cc3ccncc3)c3ccccc23)cc1` [Vatalanib] (top concentration 10000 nM), the “selective drug sensitivity score” value came to 0.

In the case of `CCCS(=O)(=O)Nc1ccc(F)c(C(=O)c2c[nH]c3ncc(-c4ccc(Cl)cc4)cc23)c1F` [Vemurafenib] (top concentration 10000 nM), the “selective drug sensitivity score” value was 2.46.

The test system of another assay is KASUMI-2. Described as above. As to conditions: 72 h.
As for `NCCNc1ccc(NCCN)c2c1C(=O)c1ccncc1C2=O` [Pixantrone] (top concentration 10000 nM), the “selective drug sensitivity score” value was -2.76.

On to `c1cc(CN2CCCNCCNCCCNCC2)ccc1CN1CCCNCCNCCCNCC1` [Plerixafor] (top concentration 10000 nM), for which the “selective drug sensitivity score” value came out at 0.

With `O=C(c1ccc(OCCN2CCCCC2)cc1)c1c(-c2ccc(O)cc2)sc2cc(O)ccc12` [Raloxifene] (top concentration 10000 nM), the “selective drug sensitivity score” value is -2.28.

With `CN(C)C(=O)c1cc2cnc(Nc3ccc(N4CCNCC4)cn3)nc2n1C1CCCC1` [Ribociclib] (top concentration 10000 nM), the “selective drug sensitivity score” value is -0.92.

Take `CN1CCN(CCOc2cc(OC3CCOCC3)c3c(Nc4c(Cl)ccc5c4OCO5)ncnc3c2)CC1` [Saracatinib] (top concentration 10000 nM): the “selective drug sensitivity score” value was determined as 1.78.

For the molecule `C=CC(=O)Nc1cccc(Nc2nc(Nc3ccc(OCCOC)cc3)ncc2F)c1` [Spebrutinib] (top concentration 1000 nM), the “selective drug sensitivity score” value is -0.16.

In the case of `C[C@@H]1CN(Cc2ccc(F)cc2)[C@@H](C)CN1C(=O)c1cc2c(C(=O)C(=O)N(C)C)cn(C)c2cc1Cl` [Talmapimod] (top concentration 10000 nM), the “selective drug sensitivity score” value came out at 0.

As to `C[C@@H](C(=O)O)c1ccc(-c2ccccc2)c(F)c1` [Tarenflurbil] (top concentration 10000 nM), the “selective drug sensitivity score” value is -0.16.

As for `CNC(=O)c1cc(COc2nnc(Nc3ccc(Cl)cc3)c3ccoc23)ccn1` [Telatinib] (top concentration 10000 nM), the “selective drug sensitivity score” value was determined as 0.

Regarding `O=c1sn(-c2cccc3ccccc23)c(=O)n1Cc1ccccc1` [Tideglusib] (top concentration 3000 nM), the “selective drug sensitivity score” value is -0.3.

For the molecule `COc1cc2nccc(Oc3ccc(NC(=O)Nc4cc(C)on4)c(Cl)c3)c2cc1OC` [Tivozanib] (top concentration 10000 nM), the “selective drug sensitivity score” value came to 4.96.

On to `Cc1cc(Nc2cc(N3CCN(C)CC3)nc(Sc3ccc(NC(=O)C4CC4)cc3)n2)n[nH]1` [Tozasertib] (top concentration 10000 nM), for which the “selective drug sensitivity score” value amounted to 12.3.

In the case of `CC1=C(/C=C/C(C)=C/C=C/C(C)=C/C(=O)O)C(C)(C)CCC1` [Tretinoin] (top concentration 10000 nM), the “selective drug sensitivity score” value is -2.4.

For the molecule `COC(=O)c1ccc2c(c1)[nH]c1ncnc(NCCCN3CCCCC3)c12` [UM729] (top concentration 10000 nM), the “selective drug sensitivity score” value was -0.06.

On to `COc1cc2c(NC3CCN(C(C)C)CC3)nc(N3CCC(F)(F)CC3)nc2cc1OCCCN1CCCC1` [UNC0642] (top concentration 10000 nM), for which the “selective drug sensitivity score” value is -0.84.

On to `O=C(c1ccc(C(=O)N2CCC(N3CCCC3)CC2)c(Nc2ccccc2)c1)N1CCC(N2CCCC2)CC1` [UNC1215] (top concentration 10000 nM), for which the “selective drug sensitivity score” value came to 0.

For `CCCC(CCC)C(=O)O` [Valproic_acid] (top concentration 1000000 nM), the “selective drug sensitivity score” value was 0.

With `Clc1ccc(Nc2nnc(Cc3ccncc3)c3ccccc23)cc1` [Vatalanib] (top concentration 10000 nM), the “selective drug sensitivity score” value stood at 0.

`CCCS(=O)(=O)Nc1ccc(F)c(C(=O)c2c[nH]c3ncc(-c4ccc(Cl)cc4)cc23)c1F` [Vemurafenib] (top concentration 10000 nM): the “selective drug sensitivity score” value is -1.14.

Another assay has as its system DND-41. The description is as above. As to conditions: 72 h.
As for `NCCNc1ccc(NCCN)c2c1C(=O)c1ccncc1C2=O` [Pixantrone] (top concentration 10000 nM), the “selective drug sensitivity score” value is -1.76.

As for `c1cc(CN2CCCNCCNCCCNCC2)ccc1CN1CCCNCCNCCCNCC1` [Plerixafor] (top concentration 10000 nM), the “selective drug sensitivity score” value was determined as 0.

In the case of `O=C(c1ccc(OCCN2CCCCC2)cc1)c1c(-c2ccc(O)cc2)sc2cc(O)ccc12` [Raloxifene] (top concentration 10000 nM), the “selective drug sensitivity score” value was determined as 4.52.

With `CN(C)C(=O)c1cc2cnc(Nc3ccc(N4CCNCC4)cn3)nc2n1C1CCCC1` [Ribociclib] (top concentration 10000 nM), the “selective drug sensitivity score” value was determined as 1.68.

In the case of `CN1CCN(CCOc2cc(OC3CCOCC3)c3c(Nc4c(Cl)ccc5c4OCO5)ncnc3c2)CC1` [Saracatinib] (top concentration 10000 nM), the “selective drug sensitivity score” value is 2.18.

For the molecule `C=CC(=O)Nc1cccc(Nc2nc(Nc3ccc(OCCOC)cc3)ncc2F)c1` [Spebrutinib] (top concentration 1000 nM), the “selective drug sensitivity score” value was -0.16.

For `C[C@@H]1CN(Cc2ccc(F)cc2)[C@@H](C)CN1C(=O)c1cc2c(C(=O)C(=O)N(C)C)cn(C)c2cc1Cl` [Talmapimod] (top concentration 10000 nM), the “selective drug sensitivity score” value was determined as 0.5.

In the case of `C[C@@H](C(=O)O)c1ccc(-c2ccccc2)c(F)c1` [Tarenflurbil] (top concentration 10000 nM), the “selective drug sensitivity score” value was 0.54.

As for `CNC(=O)c1cc(COc2nnc(Nc3ccc(Cl)cc3)c3ccoc23)ccn1` [Telatinib] (top concentration 10000 nM), the “selective drug sensitivity score” value came out at 0.
